Results published in article PMC11946789, “Two Amino Acid Substitutions Improve the Pharmacological Profile of the Snake Venom Peptide Mambalgin” (Toxins, 2025).
Where two headings read alike, the source gives them in different places. Bridges are numbered along the chain shown (N, C = ends). Where no end group is shown, it is not given here.

Molecular target: T1, homomeric rASIC1a (rat ASIC1a) (Rattus norvegicus, UniProt P55926)
T1 construct: expressed in transfected cells; host or cells: Xenopus laevis oocytes, mRNA microinjected
T1 sequence (P55926 1-526): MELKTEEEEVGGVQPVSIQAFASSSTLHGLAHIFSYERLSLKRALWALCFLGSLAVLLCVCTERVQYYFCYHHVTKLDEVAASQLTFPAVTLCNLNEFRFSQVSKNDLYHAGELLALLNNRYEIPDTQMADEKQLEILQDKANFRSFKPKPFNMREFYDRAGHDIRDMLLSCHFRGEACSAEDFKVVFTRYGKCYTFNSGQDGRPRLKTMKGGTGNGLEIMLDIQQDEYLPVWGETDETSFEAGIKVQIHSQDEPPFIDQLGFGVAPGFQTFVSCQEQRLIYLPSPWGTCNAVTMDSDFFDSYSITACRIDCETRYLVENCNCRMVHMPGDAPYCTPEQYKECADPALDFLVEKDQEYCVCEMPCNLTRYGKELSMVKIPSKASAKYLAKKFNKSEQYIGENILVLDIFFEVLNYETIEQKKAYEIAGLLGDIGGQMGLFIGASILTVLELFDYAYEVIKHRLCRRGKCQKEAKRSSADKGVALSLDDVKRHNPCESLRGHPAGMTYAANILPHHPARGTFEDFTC
Experiment: TEVC recordings, homomeric rASIC1a
Assay type: cell-based
Conditions: for increase in desensitization rate of rASIC1a: pH 5.5-induced currents, 1 µM peptide, decay constant τdes, single exponential fit, 8 to 17 cells; for Emax: pH stimulus 5.5, inhibition not complete, read-out: maximum effect (inhibition); for IC50: peptide applied 30 s before activation, Xenopus laevis oocytes, mean ± S.E.M., n = 6, read-out: half-maximal inhibitory concentration (IC50)
Description: The functional activity of Mamb-AL and its comparison with wild-type Mamb were assessed using two-electrode voltage clamp (TEVC) recordings in Xenopus laevis oocytes heterologously expressing rASIC1a.
Figure 3 The inhibitory effect of Mamb-AL on rASIC1a exceeds that of Mamb. (A,C) Representative current traces showing the effects of various concentrations of Mamb (left panels) and Mamb-AL (right panels) on rASIC1a at pH stimuli of 5.5 (A) and 6.7 (C). Currents were induced by pH stimuli after a conditioning pH of 7.4, with peptides applied for 30 s prior to channel activation. The holding potential (Vh) was set to −50 mV, and the interval between applications varied from 1 to 2 min. (B,D) Dose–response curves for the inhibitory effects of Mamb and Mamb-AL on rASIC1a at pH stimuli of 5.5 (B) and 6.7 (D). Each data point represents measurements from six cells. (E) Bar plot showing statistical analysis of IC50 values calculated from the dose–response fits for the peptides’ inhibitory effects on individual cells (n = 6). **** p< 0.001; one-way ANOVA followed by Dunnett’s post hoc test. (F) Statistical analysis of the effects of 1 µM peptide concentration on the decay constant (τdes) at a pH stimulus of 5.5. Each data point represents data from 8 to 17 cells. * p< 0.05, **** p< 0.001 compared with control, paired t-test; & p< 0.05 comparing Mamb and Mamb-AL, unpaired t-test. Data are presented as mean ± S.E.M.
Female X.laevis frogs were anesthetized with 0.17% ethyl 3-amino-benzoate methane sulfonate (MS222). A small ovarian section was surgically removed via an abdominal incision and placed in ND96 medium (96 mM NaCl, 2 mM KCl, 1.8 mM CaCl2, 1 mM MgCl2, and 5 mM HEPES, pH 7.4, adjusted with NaOH). […] Each animal underwent surgeries at intervals of no less than three months. Connective tissue and follicular sheaths were removed by incubating ovarian tissue in calcium-free ND96 medium containing collagenase (1 mg/mL) for 2 h at 21 °C. Healthy, mature stage IV and V oocytes were selected and stored in ND96 medium. PCi plasmids encoding rat ASIC1a, ASIC1b, or ASIC3 served as templates for synthesizing the corresponding messenger RNAs (mRNAs), which were then microinjected into oocytes (0.2–10 ng per oocyte) using a Nanolitre 2000 microinjection system (World Precision Instruments, Sarasota, FL, USA) 16–18 h after oocyte isolation. Injected oocytes were incubated in ND96 medium supplemented with penicillin and gentamicin (50 µg/mL each) at 18 °C for 2–3 days, followed by storage at 14 °C for up to 7 days.
Whole-cell ASIC currents were measured using the two-electrode voltage clamp (TEVC) method with a GeneClamp 500 amplifier (Axon Instruments, Union City, NJ, USA). The holding potential maintained at –50 mV. Glass microelectrodes (0.5–2.5 MΩ) were filled with 3 M KCl solution, and ND96 (pH 7.4) was used as the external bath solution. ASIC currents were activated by rapidly switching the external solution from ND96 to either ND96 containing 10 mM MOPS (pH 6.7) or ND96 containing 10 mM MES (pH 5.5). Solution exchange was controlled using a custom-built computer-driven valve system. Data were filtered at 10 Hz and digitized at 100 Hz using an L780M ADC (LCard, Moscow, Russia). Peptides Mamb and Mamb-AL were applied for 30 s at pH 7.4 prior to acid stimulation of the channels.
Electrophysiological and behavioral data were analyzed using OriginPro 8.6.0 (OriginLab, Washington, DC, USA). […] The rate of current decay was fitted using a single exponential decay function: F(x) = A*eˆ(−x/τdes) + A0, where A0 is the minimal current response and τdes is the decay constant. Statistical significance between the Mamb and Mamb-AL groups was determined using an unpaired t-test. Data are presented as mean ± SEM.

Sequence	increase in desensitization rate of rASIC1a	Emax	greater inhibition of homomeric ASIC1a channels (compared with Mamb, pH not stated)	Mamb-AL outperformed Mamb (inhibition of rASIC1a) (pH 6.7, relative to Mamb)	IC50 (pH stimulus 5.5, conditioning pH 7.4, Vh −50 mV)	complete inhibition (pH stimulus 6.7)	IC50 (pH stimulus 6.7, conditioning pH 7.4, Vh −50 mV)
LKCFQHGKVVTCHRDMKFCYHNTGMPFRNLKLILQGCSSSCSETENNKCCSTDRCNK (disulfide 3-19, 12-37, 41-49, 50-55 (inferred)) [Mamb]	24%	~90%	–	–	–	–	–
LKCYQHGKVVTCHRDAKFCYHNTGLPFRNLKLILQGCSSSCSETENNKCCSTDRCNK (disulfide 3-19, 12-37, 41-49, 50-55 (inferred)) [Mamb-AL]	45%	~90%	three-fold	more than threefold	62 ± 9 nM	100%	25 ± 3 nM
